Source: ChEMBL document CHEMBL4321825, “Discovery of a Series of 5-Azaquinazolines as Orally Efficacious IRAK4 Inhibitors Targeting MyD88L265P Mutant Diffuse Large B Cell Lymphoma” (J Med Chem, 2019)

How the values were obtained:
[1] = target: T1, Interleukin-1 receptor-associated kinase 4 (Homo sapiens, UniProt Q9NWZ3); assay: Inhibition of IRAK4 (unknown origin) in presence of 5 mM ATP by enzymatic assay
T1 sequence (Q9NWZ3 whole entry): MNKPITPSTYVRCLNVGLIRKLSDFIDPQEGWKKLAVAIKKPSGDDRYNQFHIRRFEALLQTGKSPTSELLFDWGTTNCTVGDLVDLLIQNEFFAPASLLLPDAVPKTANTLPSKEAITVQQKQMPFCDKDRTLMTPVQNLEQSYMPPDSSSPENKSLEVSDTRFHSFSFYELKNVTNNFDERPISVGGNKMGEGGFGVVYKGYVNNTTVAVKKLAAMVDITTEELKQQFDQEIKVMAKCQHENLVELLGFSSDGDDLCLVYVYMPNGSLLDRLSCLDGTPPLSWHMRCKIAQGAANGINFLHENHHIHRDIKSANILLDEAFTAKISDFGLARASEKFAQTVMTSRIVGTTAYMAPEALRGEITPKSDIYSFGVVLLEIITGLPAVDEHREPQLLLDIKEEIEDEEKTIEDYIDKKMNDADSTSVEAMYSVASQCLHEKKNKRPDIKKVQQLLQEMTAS

[2] = target: T1, Interleukin-1 receptor-associated kinase 4; assay: Inhibition of IRAK4 (unknown origin) by cell based assay
[3] = Lipophilicity, logD of the compound at pH 7.4 by shake-flask assay; assay type: physicochemical; settings: buffer
[4] = Intrinsic clearance in human hepatocytes assessed per million cells; assay type: ADME, cell-based, Hepatocyte; settings: read-out: CLH
[5] = Intrinsic clearance in rat hepatocytes assessed per million cells; assay type: ADME, cell-based, Hepatocyte; settings: read-out: CLH
[6] = Efflux ratio in human Caco2 cells; assay type: ADME, cell-based; settings: Caco-2
[7] = Clearance in rat at 0.5 mg/kg, iv; assay type: ADME, organism-based; settings: in vivo
[8] = Oral bioavailability in rat at 1 mg/kg; assay type: ADME, organism-based; settings: in vivo
[9] = Intrinsic permeability in human Caco2 cells; assay type: ADME, cell-based; settings: Caco-2

SMILES	IC50 [1] [nM]	IC50 [2] [nM]	logD [3]	hepatocyte CLint [4] [µL/min/1e6 cells]	hepatocyte CLint [5] [µL/min/1e6 cells]	efflux ratio [6]	clearance [7] [mL/min/kg]	bioavailability [8] [%]	Papp [9] [×10⁻⁶ cm/s]
COC(=O)N1CCN([C@H]2CC[C@H](Nc3ncnc4ccc(C)nc34)CC2)CC1	279	840	2	< 1	5.2	0.8	–	–	35
COC(=O)N1CCN([C@H]2CC[C@H](Nc3ncnc4ccc(C)cc34)CC2)CC1	38	200	2.5	< 1	10	0.7	–	–	28
COC(=O)N1CCN([C@H]2CC[C@H](Nc3nc(Nc4cnn(C)c4)nc4ccc(C)nc34)CC2)CC1	9	140	2.6	13	10	0.9	–	–	7.9
COC(=O)N1CCN([C@H]2CC[C@H](Nc3nc(Nc4cnn(C)c4)nc4ccc(C(C)C#N)nc34)CC2)CC1 (stereo not given in full)	6	130	2.8	–	26	–	–	–	–
CC(=O)N1CCN([C@H]2CC[C@H](Nc3ncnc4ccc(C#N)cc34)CC2)CC1	122	420	1.4	< 1	< 1	19	19	–	4.2

The next compounds have a lower IC50 [1] than those just listed; values first:

IC50 [1] [nM]	IC50 [2] [nM]	logD [3]	hepatocyte CLint [4] [µL/min/1e6 cells]	hepatocyte CLint [5] [µL/min/1e6 cells]	efflux ratio [6]	clearance [7] [mL/min/kg]	bioavailability [8] [%]	Papp [9] [×10⁻⁶ cm/s]	SMILES
5	48	2.7	–	2.6	–	–	–	–	COC(=O)N1CCN([C@H]2CC[C@H](Nc3nc(Nc4cnn(C)c4)nc4ccc(C#N)nc34)CC2)CC1
2	59	2.6	< 1	18	94	31	5	–	Cn1cc(Nc2nc(N[C@H]3CC[C@H](N4CCOCC4)CC3)c3cc(C#N)ccc3n2)cn1
